Data: PubChem BioAssay (NCI)
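Cultured in 96-well plates, cells were exposed to test compound for 48 hours across five concentrations. TGI marks complete inhibition of growth.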 Where a SMILES comes first, the peptide text is derived from it. [ ]: non-standard residue; d: D form. The star is where a group is joined. ξ: configuration not given here. NMeF = CN[C@@H](Cc1ccccc1)C(=O)O; ξNMeV = CNC(C(=O)O)C(C)C; Boc = CC(C)(C)OC(=O)*; OBn = c1ccc(CO*)cc1

Assays:
Assay in all cases: growth of human tumour cells (NCI), 48 h
DMS 273 small cell lung = system: DMS 273 small cell lung
XF 498 CNS = system: XF 498 CNS
RXF-631 renal = system: RXF-631 renal
SNB-78 CNS = system: SNB-78 CNS
HOP-18 NSCLC = system: HOP-18 NSCLC
KM20L2 colon = system: KM20L2 colon

Structure (SMILES)	TGI (DMS 273 small cell lung) [µM]	TGI (XF 498 CNS) [µM]	TGI (RXF-631 renal) [µM]	TGI (SNB-78 CNS) [µM]	TGI (HOP-18 NSCLC) [µM]	TGI (KM20L2 colon) [µM]
COc1ccc(C2ON(c3ccccn3)CC=C2C)cc1 (centres undefined)	> 100	> 100	> 100	> 100	> 100	> 100
N#CC(C#N)=C(N)/C(C#N)=C/c1cc(O)c(O)c(Br)c1	> 100	> 100		> 100		> 100
CC12CC[C@H](O)C(C)(C)[C@H]1CC[C@](C)(O)C2COc1ccc2ccc(=O)oc2c1 (some centres undefined)	> 100	> 100		> 100	> 100	> 100
COC(=O)N/N=C/c1oc(-c2ccccc2)c(-c2ccccc2)c1[N+](=O)[O-]	> 100	> 100	> 100	> 100		> 100
CC(=O)OC1CC2(c3ccccc3)C(=O)c3ccccc3N2O1 (centres undefined)	> 100	> 100		> 100	> 100	> 100
O=C1c2nn(-c3ccccc3)nc2C(c2ccccc2)N1c1ccccc1 (centres undefined)	> 100	> 100		> 100	> 100	> 100
CC(C)C(C(=O)N1CCC[C@@H]1C(=O)OCc1ccccc1)N(C)C(=O)C(C(C)C)N(C)C(=O)[C@H](Cc1ccccc1)N(C)C(=O)[C@H](NC(=O)OC(C)(C)C)C(C)C (some centres undefined) (Boc-[dV][NMeF][ξNMeV][ξNMeV][dP]-OBn)	> 100	> 100		> 100	> 100	> 100
O=C1C2CCC(C2)C12CC1(c3ccccc3)C(=O)c3ccccc3N1O2 (centres undefined)	> 100	> 100		> 100	> 100	> 100
COc1cc(C(C)c2cc3c(cc2OCCCCOc2cc4c(cc2C(C)c2cc(OC)c(OC)c(OC)c2)OCO4)OCO3)cc(OC)c1OC (centres undefined)		89.2	> 100	64		> 100
COc1ccc([N-]/C(=N\n2c(=O)c(C)nn(C)c2=S)N(c2ccc(OC)cc2)c2nn3c(=O)c(C)n[n+](C)c3s2)cc1	> 100			> 100	> 100	> 100
CC(C)OP(=O)(OC(C)C)/C(=N/N)NNc1ccc([N+](=O)[O-])cc1	> 100	> 100		> 100		> 100
O=c1c2ccccc2nc(-c2ccccc2)n1NC(=S)Nc1ccc(Cl)cc1[N+](=O)[O-]	> 100				> 100	
